Source: the NIST ThermoML archive (doi:10.1016/j.jct.2013.01.010)

Legend:
[1] = excess molar enthalpy (molar enthalpy of mixing); xn = mol fraction of the nth substance listed; conditions: 298.15 K, 101 kPa, Liquid, 2-Drop Calorimetry
[2] = xn = mol fraction of the nth substance listed; conditions: 101 kPa, Liquid; for speed of sound: Sing-around technique in a fixed-path interferometer; for mass density: Vibrating tube method

CCn1cc[n+](C)c1.F[B-](F)(F)F [1-ethyl-3-methylimidazolium tetrafluoroborate] + CC(C)=O
[1]
Conditions | excess molar enthalpy [kcal/mol]
x1 = 0.0987 | -0.0136
x1 = 0.1451 | -0.0198
x1 = 0.1991 | -0.0272
x1 = 0.2547 | -0.0339
x1 = 0.3012 | -0.038
x1 = 0.3428 | -0.0423
x1 = 0.3984 | -0.0461
x1 = 0.4425 | -0.0483
x1 = 0.4851 | -0.0497
x1 = 0.5335 | -0.0502
x1 = 0.6021 | -0.048
x1 = 0.6689 | -0.0454
x1 = 0.7148 | -0.0418
x1 = 0.7723 | -0.0359
x1 = 0.8227 | -0.0289
x1 = 0.8769 | -0.0213
x1 = 0.9012 | -0.0174
x1 = 0.9113 | -0.016

[2]
Conditions | mass density, 293.15 K [kg/m3] | mass density, 298.15 K [kg/m3] | mass density, 303.15 K [kg/m3] | mass density, 308.15 K [kg/m3] | speed of sound, 293.15 K [m/s] | speed of sound, 298.15 K [m/s] | speed of sound, 303.15 K [m/s] | speed of sound, 308.15 K [m/s]
x1 = 0.1214 | 933.27 | 928.61 | 923.44 | 918.15 | 1241.1 | 1221 | 1193.4 | 1172.8
x1 = 0.1789 | 987.63 | 983.61 | 978.74 | 973.95 | 1280.4 | 1261.7 | 1233.4 | 1211.1
x1 = 0.2147 | 1017.82 | 1013.85 | 1009.37 | 1004.85 | 1307.6 | 1290.7 | 1262.9 | 1238.4
x1 = 0.2813 | 1066.88 | 1063.3 | 1059.25 | 1055.19 | 1360.4 | 1349.9 | 1321.9 | 1295.2
x1 = 0.3219 | 1092.73 | 1089.56 | 1085.84 | 1082.01 | 1394.1 | 1386.6 | 1358.3 | 1331
x1 = 0.3649 | 1117.49 | 1114.19 | 1110.78 | 1107.15 | 1429.2 | 1423.4 | 1398.5 | 1367.9
x1 = 0.4193 | 1144.91 | 1141.69 | 1138.75 | 1135.16 | 1473.1 | 1469.1 | 1449.6 | 1417.4
x1 = 0.4714 | 1167.62 | 1164.64 | 1161.69 | 1158.46 | 1507.7 | 1510.2 | 1490.7 | 1458.4
x1 = 0.5217 | 1186.9 | 1183.85 | 1181.07 | 1177.84 | 1539.7 | 1539.6 | 1526.3 | 1498
x1 = 0.5772 | 1205.54 | 1202.14 | 1199.7 | 1196.16 | 1566 | 1566.1 | 1559.2 | 1531
x1 = 0.6319 | 1221.27 | 1217.91 | 1215.28 | 1211.72 | 1583 | 1585.4 | 1579.8 | 1558.2
x1 = 0.6768 | 1232.69 | 1229.09 | 1226.6 | 1222.91 | 1593.5 | 1591.6 | 1587.6 | 1574.7
x1 = 0.7199 | 1242.54 | 1238.8 | 1236.06 | 1232.31 | 1601.6 | 1596.9 | 1594 | 1587.8
x1 = 0.7724 | 1252.97 | 1249.12 | 1246.25 | 1242.25 | 1604.7 | 1595.8 | 1592.9 | 1595.8
x1 = 0.8304 | 1263 | 1258.91 | 1255.95 | 1251.74 | 1607.5 | 1595.9 | 1591.6 | 1597.6
x1 = 0.8766 | 1269.84 | 1265.74 | 1262.51 | 1258.3 | 1610 | 1595.9 | 1589.9 | 1597.6
x1 = 0.9011 | 1273.08 | 1268.96 | 1265.71 | 1261.43 | 1612.6 | 1596.6 | 1589.4 | 1597.9
x1 = 0.9203 | 1275.47 | 1271.38 | 1267.99 | 1263.7 | 1614.6 | 1599 | 1591 | 1597.3

CCn1cc[n+](C)c1.F[B-](F)(F)F [1-ethyl-3-methylimidazolium tetrafluoroborate] + C[S+](C)[O-]
[1]
Conditions | excess molar enthalpy [kcal/mol]
x1 = 0.1116 | -0.104
x1 = 0.1785 | -0.159
x1 = 0.2157 | -0.192
x1 = 0.2854 | -0.233
x1 = 0.3259 | -0.256
x1 = 0.3981 | -0.281
x1 = 0.4368 | -0.285
x1 = 0.4852 | -0.29
x1 = 0.5111 | -0.291
x1 = 0.5729 | -0.281
x1 = 0.6255 | -0.26
x1 = 0.6899 | -0.232
x1 = 0.7365 | -0.208
x1 = 0.7943 | -0.168
x1 = 0.8338 | -0.137
x1 = 0.8896 | -0.0906
x1 = 0.9012 | -0.0839
x1 = 0.9258 | -0.0619

[2]
Conditions | mass density, 293.15 K [kg/m3] | mass density, 298.15 K [kg/m3] | mass density, 303.15 K [kg/m3] | mass density, 308.15 K [kg/m3] | speed of sound, 293.15 K [m/s] | speed of sound, 298.15 K [m/s] | speed of sound, 303.15 K [m/s] | speed of sound, 308.15 K [m/s]
x1 = 0.1319 | 1154.13 | 1149.63 | 1145.2 | 1140.37 | 1533 | 1514.8 | 1498.7 | 1481.3
x1 = 0.1819 | 1170.55 | 1166.13 | 1161.81 | 1157.02 | 1544.4 | 1526.6 | 1510.3 | 1492.8
x1 = 0.2336 | 1185.68 | 1181.3 | 1177.06 | 1172.25 | 1556.2 | 1538.6 | 1522.2 | 1504.7
x1 = 0.2909 | 1200.5 | 1196.12 | 1191.89 | 1187.15 | 1567.8 | 1551 | 1535.1 | 1517.4
x1 = 0.3417 | 1212.05 | 1207.64 | 1203.45 | 1198.76 | 1577.3 | 1561.5 | 1545.4 | 1528.1
x1 = 0.3799 | 1219.83 | 1215.48 | 1211.24 | 1206.59 | 1584 | 1568.7 | 1552.3 | 1535.9
x1 = 0.4215 | 1227.57 | 1223.18 | 1219.02 | 1214.39 | 1589.9 | 1575.8 | 1559.5 | 1543.2
x1 = 0.4719 | 1236 | 1231.61 | 1227.4 | 1222.88 | 1596.3 | 1583.7 | 1567.7 | 1552
x1 = 0.5335 | 1244.97 | 1240.56 | 1236.44 | 1232.02 | 1602.8 | 1591.2 | 1575.8 | 1560.5
x1 = 0.5782 | 1250.68 | 1246.29 | 1242.17 | 1237.86 | 1606.2 | 1595.6 | 1580.4 | 1566.1
x1 = 0.6198 | 1255.44 | 1251.13 | 1247.04 | 1242.76 | 1608.8 | 1598.6 | 1584.3 | 1571
x1 = 0.6717 | 1260.78 | 1256.5 | 1252.45 | 1248.28 | 1611 | 1601.8 | 1588.6 | 1575.9
x1 = 0.7204 | 1265.23 | 1260.99 | 1257 | 1252.91 | 1613 | 1604.4 | 1591.7 | 1579.7
x1 = 0.7737 | 1269.58 | 1265.39 | 1261.48 | 1257.45 | 1614.7 | 1606.4 | 1594.6 | 1583.2
x1 = 0.8219 | 1273.1 | 1268.95 | 1265.1 | 1261.11 | 1616.4 | 1607.9 | 1596.8 | 1586
x1 = 0.8783 | 1276.82 | 1272.74 | 1268.97 | 1264.97 | 1619.2 | 1610.3 | 1599.7 | 1588.9
x1 = 0.9041 | 1278.42 | 1274.36 | 1270.62 | 1266.61 | 1621 | 1611.6 | 1601.1 | 1590.4
x1 = 0.9249 | 1279.65 | 1275.62 | 1271.9 | 1267.87 | 1622.6 | 1612.9 | 1602.2 | 1591.6
